In patent US20210060030A1, “METHOD FOR TREATING CANCER” (Epizyme, Inc., priority 2014, published 2021):
“Also recorded” adds a separate entry of the source.

How the values were obtained:
clinical = settings: human, in vivo; for AUC(0-t): AUC0-12 hr
Description: Blood samples for PK and skin biopsies for PD analysis were collected. PD samples were stained with H3K27me3 specific antibody and percent change from baseline in H3K27Me3 positive cells was determined. PK/PD relationship was analyzed. Tumor assessments were performed every 8 weeks.
Doses administered were 100 mg BID as a suspension (n=3) or tablet (n=3) formulation and 200, 400, 800 and 1600 mg as tablet formulation.

[1] = system: H3K27Me3 positive cells in the epidermis; experiment: Skin biopsy H3K27Me3 immunohistochemistry and PK/PD model; assay type: in vivo, human
Description: (§1) PK/PD relationship was analyzed. Tumor assessments were performed every 8 weeks.
Skin biopsies were collected predose (Cycle 1, Day 1) and predose prior to Cycle 2, Day 1 for immunohistochemistry analysis.
An inhibitory Emax PK/PD model was fit to describe this relationship.

[2] = system: advanced solid tumors or B cell lymphoma; experiment: Phase 1 tumor assessments (anti-tumor activity); assay type: in vivo, human
Description: as §1

[3] = assay type: in vivo; settings: dose escalation up to 1600 mg BID
Description: Phase 1 dose escalation is being performed to determine maximum tolerated dose (MTD) safety, PK, PD, and preliminary anti-tumor activity in patients (“pts”) with B cell lymphoma or advanced solid tumors.
as §1

ABC lymphoma cell lines = experiment: Combination with drugs that target the BCR/PI3K pathways in ABC lymphoma cell lines; assay type: cell-based

## CCN(c1cc(-c2ccc(CN3CCOCC3)cc2)cc(C(=O)NCc2c(C)cc(C)[nH]c2=O)c1C)C1CCOCC1 [EPZ-6438]
clinical; 100 mg
  AUC0-12 hr: 0.337 µg·h/mL
  Tmax: 1.0 h
  AUC(0-t): 0.467 µg·h/mL
clinical; 100 mg, Tmax
  Tmax: 0.5 h
clinical; 200 mg
  AUC(0-t): 1.25 µg·h/mL
clinical; 200 mg, Cmax
  Cmax: 0.363 µg/mL
clinical; 200 mg, Tmax
  Tmax: 1 h
clinical; 200 mg, t1/2
  half-life: 3.42 h
clinical; 400 mg
  AUC(0-t): 1.72 µg·h/mL
clinical; 400 mg, Cmax
  Cmax: 0.476 µg/mL
clinical; 400 mg, Tmax
  Tmax: 2 h
clinical; 400 mg, t1/2
  half-life: 2.88 h
clinical; 800 mg
  AUC: 4.55 µg·h/mL
  AUC(0-t): 7.8 µg·h/mL
clinical; 800 mg, Cmax
  Cmax: 1.73 µg/mL
clinical; 800 mg, Tmax
  Tmax: 2 h
clinical; 800 mg, t1/2
  half-life: 3.81 h
clinical; 1600 mg
  Cmax: 4.125 µg/mL
  AUC(0-t): 18.9 µg·h/mL
clinical; 1600 mg, Tmax
  Tmax: 2 h
clinical; 1600 mg, t1/2
  half-life: 3.67 h
clinical; mean EPZ-6438 terminal half-life (t½)
  half-life: 3 to 6 h
clinical; po, Tmax
  Tmax: 1 to 2 h
clinical; po, half-life
  half-life: ~4 h
clinical; terminal half-life (t½)
  half-life: 3 to 6 h
[1]; inhibitory Emax PK/PD model estimate
  maximal inhibition (Imax) of H3K27Me3 positive cells in skin: −44.4%
[1]; inhibitory Emax PK/PD model estimate, AUC exposure
  exposure associated with 50% of maximal inhibition (IC50): 487 ng·h/mL
[1]; model predicted, AUC exposure
  exposure associated with 90% of maximal inhibition (IC90): 4421 ng·h/mL
[1]; skin biopsies, Cycle 2 Day 1 vs predose baseline
  H3K27Me3 positive cells in skin: exposure-related decrease; also recorded: consistent decrease
[2]; 100 mg dose group
  Maximum tumor change: −78%
[2]; 200mg dose group
  Maximum tumor change: −87%
[2]; 1 transformed DLBCL, 100mg BID, and 1 PMBL, 200mg BID
  Partial responses in evaluable NHL pts: 2 of 4
[3]
  MTD: has not been reached
ABC lymphoma cell lines
  effect of combination with drugs that target the BCR/PI3K pathways: no effect observed
